According to US10322111B2, “Chemokine receptor binding heterocyclic compounds with enhanced efficacy” (Genzyme Corporation, priority 2001, dated 2019):
Where two headings read alike, the source gives them in different places.

Tests used:
CFU-GM progenitor cells = conditions: 80 μg/kg s.c.; for % CHG, CFU-GM, agar culture / mean fold change compared to T 0, CFU-GM, agar culture, MEAN: all five donors
[1] = tested on: CD34 positive progenitor cells

c1cc(CN2CCCNCCNCCCNCC2)ccc1CN1CCCNCCNCCCNCC1 [AMD3100, 1,1′-[1,4-phenylene-bis(methylene)]-bis-1,4,8,11-tetraazacyclotetradecane]
Absolute # of Progenitors per ML, CFU-GM, AGAR Culture (CFU-GM progenitor cells; P1, T = 1 h after injection): 710 per ML | fold change from T=0, CFU-GM, agar culture (CFU-GM progenitor cells; P1, T = 1 h after injection): 3.05 fold | Absolute # of Progenitors per ML, CFU-GM, AGAR Culture (CFU-GM progenitor cells; P1, T = 3 h after injection): 2070 per ML | fold change from T=0, CFU-GM, agar culture (CFU-GM progenitor cells; P1, T = 3 h after injection): 8.88 fold | Absolute # of Progenitors per ML, CFU-GM, AGAR Culture (CFU-GM progenitor cells; P1, T = 6 h after injection): 4142 per ML | fold change from T=0, CFU-GM, agar culture (CFU-GM progenitor cells; P1, T = 6 h after injection): 17.77 fold | Absolute # of Progenitors per ML, CFU-GM, AGAR Culture (CFU-GM progenitor cells; P2, T = 1 h after injection): 376 per ML | fold change from T=0, CFU-GM, agar culture (CFU-GM progenitor cells; P2, T = 1 h after injection): 3.74 fold | Absolute # of Progenitors per ML, CFU-GM, AGAR Culture (CFU-GM progenitor cells; P2, T = 3 h after injection): 953 per ML | fold change from T=0, CFU-GM, agar culture (CFU-GM progenitor cells; P2, T = 3 h after injection): 9.49 fold | Absolute # of Progenitors per ML, CFU-GM, AGAR Culture (CFU-GM progenitor cells; P2, T = 6 h after injection): 2409 per ML | fold change from T=0, CFU-GM, agar culture (CFU-GM progenitor cells; P2, T = 6 h after injection): 24.01 fold | Absolute # of Progenitors per ML, CFU-GM, AGAR Culture (CFU-GM progenitor cells; P2, T = 9 h after injection): 1032 per ML | fold change from T=0, CFU-GM, agar culture (CFU-GM progenitor cells; P2, T = 9 h after injection): 10.28 fold | Absolute # of Progenitors per ML, CFU-GM, AGAR Culture (CFU-GM progenitor cells; P2, T = 24 h after injection): 371 per ML | fold change from T=0, CFU-GM, agar culture (CFU-GM progenitor cells; P2, T = 24 h after injection): 3.69 fold | Absolute # of Progenitors per ML, CFU-GM, AGAR Culture (CFU-GM progenitor cells; P3, T = 1 h after injection): 234 per ML | fold change from T=0, CFU-GM, agar culture (CFU-GM progenitor cells; P3, T = 1 h after injection): 1.67 fold | Absolute # of Progenitors per ML, CFU-GM, AGAR Culture (CFU-GM progenitor cells; P3, T = 3 h after injection): 1049 per ML | fold change from T=0, CFU-GM, agar culture (CFU-GM progenitor cells; P3, T = 3 h after injection): 7.47 fold | Absolute # of Progenitors per ML, CFU-GM, AGAR Culture (CFU-GM progenitor cells; P3, T = 6 h after injection): 1972 per ML | fold change from T=0, CFU-GM, agar culture (CFU-GM progenitor cells; P3, T = 6 h after injection): 14.04 fold | Absolute # of Progenitors per ML, CFU-GM, AGAR Culture (CFU-GM progenitor cells; P3, T = 9 h after injection): 1085 per ML | fold change from T=0, CFU-GM, agar culture (CFU-GM progenitor cells; P3, T = 9 h after injection): 7.72 fold | Absolute # of Progenitors per ML, CFU-GM, AGAR Culture (CFU-GM progenitor cells; P3, T = 24 h after injection): 159 per ML | fold change from T=0, CFU-GM, agar culture (CFU-GM progenitor cells; P3, T = 24 h after injection): 1.13 fold | Absolute # of Progenitors per ML, CFU-GM, AGAR Culture (CFU-GM progenitor cells; P4, T = 1 h after injection): 336 per ML | fold change from T=0, CFU-GM, agar culture (CFU-GM progenitor cells; P4, T = 1 h after injection): 2.71 fold | Absolute # of Progenitors per ML, CFU-GM, AGAR Culture (CFU-GM progenitor cells; P4, T = 3 h after injection): 1299 per ML | fold change from T=0, CFU-GM, agar culture (CFU-GM progenitor cells; P4, T = 3 h after injection): 10.46 fold | Absolute # of Progenitors per ML, CFU-GM, AGAR Culture (CFU-GM progenitor cells; P4, T = 6 h after injection): 1623 per ML | fold change from T=0, CFU-GM, agar culture (CFU-GM progenitor cells; P4, T = 6 h after injection): 13.07 fold | Absolute # of Progenitors per ML, CFU-GM, AGAR Culture (CFU-GM progenitor cells; P4, T = 9 h after injection): 1268 per ML | fold change from T=0, CFU-GM, agar culture (CFU-GM progenitor cells; P4, T = 9 h after injection): 10.22 fold | Absolute # of Progenitors per ML, CFU-GM, AGAR Culture (CFU-GM progenitor cells; P4, T = 24 h after injection): 162 per ML | fold change from T=0, CFU-GM, agar culture (CFU-GM progenitor cells; P4, T = 24 h after injection): 1.30 fold | Absolute # of Progenitors per ML, CFU-GM, AGAR Culture (CFU-GM progenitor cells; P5, T = 1 h after injection): 298 per ML | Absolute # of Progenitors per ML, CFU-GM, AGAR Culture (CFU-GM progenitor cells; P5, T = 3 h after injection): 664 per ML | Absolute # of Progenitors per ML, CFU-GM, AGAR Culture (CFU-GM progenitor cells; P5, T = 6 h after injection): 2153 per ML | Absolute # of Progenitors per ML, CFU-GM, AGAR Culture (CFU-GM progenitor cells; P5, T = 9 h after injection): 1326 per ML | Absolute # of Progenitors per ML, CFU-GM, AGAR Culture (CFU-GM progenitor cells; P5, T = 24 h after injection): 229 per ML | fold change from T=0, CFU-GM, agar culture (CFU-GM progenitor cells; P6, T = 1 h after injection): 2.87 fold | fold change from T=0, CFU-GM, agar culture (CFU-GM progenitor cells; P6, T = 3 h after injection): 6.40 fold | fold change from T=0, CFU-GM, agar culture (CFU-GM progenitor cells; P6, T = 6 h after injection): 20.75 fold | fold change from T=0, CFU-GM, agar culture (CFU-GM progenitor cells; P6, T = 9 h after injection): 12.78 fold | fold change from T=0, CFU-GM, agar culture (CFU-GM progenitor cells; P6, T = 24 h after injection): 2.20 fold | % CHG, CFU-GM, agar culture (CFU-GM progenitor cells; T = 1 h after injection): 180.8% | mean fold change compared to T 0, CFU-GM, agar culture, MEAN (CFU-GM progenitor cells; T = 1 h after injection): 2.81 fold | % CHG, CFU-GM, agar culture (CFU-GM progenitor cells; T = 3 h after injection): 754.1% | mean fold change compared to T 0, CFU-GM, agar culture, MEAN (CFU-GM progenitor cells; T = 3 h after injection): 8.54 fold | % CHG, CFU-GM, agar culture (CFU-GM progenitor cells; T = 6 h after injection): 1692.8% | mean fold change compared to T 0, CFU-GM, agar culture, MEAN (CFU-GM progenitor cells; T = 6 h after injection): 17.93 fold | % CHG, CFU-GM, agar culture (CFU-GM progenitor cells; T = 9 h after injection): 924.9% | mean fold change compared to T 0, CFU-GM, agar culture, MEAN (CFU-GM progenitor cells; T = 9 h after injection): 10.25 fold | % CHG, CFU-GM, agar culture (CFU-GM progenitor cells; T = 24 h after injection): 108.3% | mean fold change compared to T 0, CFU-GM, agar culture, MEAN (CFU-GM progenitor cells; T = 24 h after injection): 2.08 fold | time post-administration at which elevation of CD34 positive progenitor cells maximized ([1]; human volunteers, 80 μg/kg s.c.): 6 h | CD34 positive cells ([1]; volunteer P1, 1 Hr after 80 μg/kg s.c.): .04 percentage of the total WBC's | CD34 positive cells ([1]; volunteer P1, 3 Hr after 80 μg/kg s.c.): .07 percentage of the total WBC's | CD34 positive cells ([1]; volunteer P1, 6 Hr after 80 μg/kg s.c.): .11 percentage of the total WBC's | CD34 positive cells ([1]; volunteer P1, 9 Hr after 80 μg/kg s.c.): .11 percentage of the total WBC's | CD34 positive cells ([1]; volunteer P1, Day 2 after 80 μg/kg s.c.): .08 percentage of the total WBC's | CD34 positive cells ([1]; volunteer P2, 1 Hr after 80 μg/kg s.c.): .06 percentage of the total WBC's | CD34 positive cells ([1]; volunteer P2, 3 Hr after 80 μg/kg s.c.): .08 percentage of the total WBC's | CD34 positive cells ([1]; volunteer P2, 6 Hr after 80 μg/kg s.c.): .13 percentage of the total WBC's | CD34 positive cells ([1]; volunteer P2, 9 Hr after 80 μg/kg s.c.): .11 percentage of the total WBC's | CD34 positive cells ([1]; volunteer P2, Day 2 after 80 μg/kg s.c.): .12 percentage of the total WBC's | CD34 positive cells ([1]; volunteer P3, 1 Hr after 80 μg/kg s.c.): .16 percentage of the total WBC's | CD34 positive cells ([1]; volunteer P3, 3 Hr after 80 μg/kg s.c.): .06 percentage of the total WBC's | CD34 positive cells ([1]; volunteer P3, 9 Hr after 80 μg/kg s.c.): .11 percentage of the total WBC's | CD34 positive cells ([1]; volunteer P3, Day 2 after 80 μg/kg s.c.): .07 percentage of the total WBC's | CD34 positive cells ([1]; volunteer P4, 1 Hr after 80 μg/kg s.c.): .07 percentage of the total WBC's | CD34 positive cells ([1]; volunteer P4, 3 Hr after 80 μg/kg s.c.): .09 percentage of the total WBC's | CD34 positive cells ([1]; volunteer P4, 6 Hr after 80 μg/kg s.c.): .09 percentage of the total WBC's | CD34 positive cells ([1]; volunteer P4, 9 Hr after 80 μg/kg s.c.): .1 percentage of the total WBC's | CD34 positive cells ([1]; volunteer P4, Day 2 after 80 μg/kg s.c.): .1 percentage of the total WBC's
